# Assay results: patent publication US11648258B2, “Method and compounds for inhibiting the MCM complex and their application in cancer treatment” (priority 2012, dated 2023)
# Experiments:
# [1] = target: T1, hMcm2 and hMcm6 chromatin association (Homo sapiens, UniProt P49736+Q14566); assay: Chromatin binding assay (pre-RC assembly) in HeLa cells; format: cell-based
# T1 construct: endogenous in cells; host or cells: HeLa
# Protocol: Cells were harvested by trypsinization and washed twice with cold PBS. Extraction buffer (EB; ˜20 μl/10^6 cells) (100 mM KCl, 50 mM HEPES-KOH pH7.5, 2.5 mM MgCl2, 50 mM NaF, 5 mM Na4P2O7, 0.1 mM NaVO3, 0.5% Triton X-100, 1 mM PMSF, 2 μg/ml Pepstatin A, 20 μg/ml Leupeptin, 20 μg/ml Aprotinin, 0.2 mM Pefabloc, 2 mM Benzamidine HCl and 0.2 mg/ml Bacitracin) was added to resuspend and lyse the cells by pippetting. Cells were set on ice for 10 min, and flicked to mix every 2-3 min during the incubation. A volume of 30% ice-cold sucrose equal to EB containing protease inhibitors as in EB was added to the bottom of tube. The tube was spun at top speed in a microcentrifuge for 10 min to separate the chromatin and free proteins. The supernatant was transferred to a new tube and kept on ice. […]
# As the component of pre-RC, the MCM complex plays a central role in the licensing of DNA replication. […] In FIGS. 5A and B, asynchronous Hela cells were treated with 17beta-Deacetyltanghinin for 24 hrs and analyzed by the chromatin binding assay (FIG. 5A). Untreated cells (Untreat.), cells treated with the solvent DMSO, and those treated with 0.2, 0.4 or 0.8∝g/ml 17beta-Deacetyltanghinin were analyzed for pre-RC components in the chromatin and supernatant fractions by immunoblotting (FIG. 5A). […] Each cell sample was also analyzed for cell cycle distribution by flow cytometry (FIG. 5B). […]
# HeLa cells = assay: BrdU incorporation assay (DNA replication) in HeLa cells; format: cell-based, human
# Protocol: Hela cells grown on cover slips coated with poly-D-lysine were incubated with 50 μM BrdU (Sigma) for 1 hr at 37° C. after 24 hrs of 17beta-Deacetyltanghinin treatment. Cells were then fixed in with 4% of PFA in PBS at room temperature for 20 min, permeabilized with 0.1% Triton X-100 and 1% BSA in PBS for 20 min, and then incubated sequentially with anti-BrdU (Sigma Chemical Company; 1:500) and anti-mouse IgG-FITC conjugates (Sigma Chemical Company; 1:500), each for 1 hr at 37° C., with three washes in PBS after each antibody incubation. BrdU signal was observed under the fluorescence microscope (Nikon TE2000E).
# As 17beta-Deacetyltanghinin disrupts the interactions between hMcm2 and hMcm6 and inhibits the association of MCM proteins with chromatin, 17beta-Deacetyltanghinin should block DNA replication. To confirm this, we treated HeLa cells with 17beta-Deacetyltanghinin for 24 hrs and then labeled them with BrdU for 1 hr. Incorporated BrdU in the cellular DNA was detected by an anti-BrdU antibody followed by FITC-anti-mouse secondary antibodies which was visualized under the fluorescence microscope (FIG. 6A). DAPI was used to stain the nuclei (FIG. 6A), and the percentage of BrdU positive cells was quantified (FIG. 6B). […]
# [2] = tested on: L-02 (normal liver) cells and HepG2 (liver cancer) cells; assay: Growth resumption after drug removal, WST-1 assay; format: cell-based, human; details: one day treatment, then three days in fresh medium
# Protocol: Data in FIGS. 2 and 8A indicate that the anti-proliferation compounds of this invention can specifically kill cancer cells with little cytotoxicity towards normal cells. To test if normal and/or cancer cells could resume cell growth after removal of 17beta-Deacetyltanghinin, L-02 (normal liver) cells and HepG2 (liver cancer) cells were incubated with 17beta-Deacetyltanghinin or DMSO for one day, 17beta-Deacetyltanghinin or DMSO was then removed, and the cells were further incubated with fresh growth medium for three days. Viable cell numbers were monitored daily by WST-1 assay. In FIG. 9, L+DAT refers to L-02 cells treated with 17beta-Deacetyltanghinin; L+D represents L-02 cells treated with DMSO; H+DAT refers to HepG2 cells treated with 17beta-Deacetyltanghinin; and H+D represents HepG2 cells treated with DMSO before being released into fresh medium.
# T1 sequence (P49736 2-904 limits assumed): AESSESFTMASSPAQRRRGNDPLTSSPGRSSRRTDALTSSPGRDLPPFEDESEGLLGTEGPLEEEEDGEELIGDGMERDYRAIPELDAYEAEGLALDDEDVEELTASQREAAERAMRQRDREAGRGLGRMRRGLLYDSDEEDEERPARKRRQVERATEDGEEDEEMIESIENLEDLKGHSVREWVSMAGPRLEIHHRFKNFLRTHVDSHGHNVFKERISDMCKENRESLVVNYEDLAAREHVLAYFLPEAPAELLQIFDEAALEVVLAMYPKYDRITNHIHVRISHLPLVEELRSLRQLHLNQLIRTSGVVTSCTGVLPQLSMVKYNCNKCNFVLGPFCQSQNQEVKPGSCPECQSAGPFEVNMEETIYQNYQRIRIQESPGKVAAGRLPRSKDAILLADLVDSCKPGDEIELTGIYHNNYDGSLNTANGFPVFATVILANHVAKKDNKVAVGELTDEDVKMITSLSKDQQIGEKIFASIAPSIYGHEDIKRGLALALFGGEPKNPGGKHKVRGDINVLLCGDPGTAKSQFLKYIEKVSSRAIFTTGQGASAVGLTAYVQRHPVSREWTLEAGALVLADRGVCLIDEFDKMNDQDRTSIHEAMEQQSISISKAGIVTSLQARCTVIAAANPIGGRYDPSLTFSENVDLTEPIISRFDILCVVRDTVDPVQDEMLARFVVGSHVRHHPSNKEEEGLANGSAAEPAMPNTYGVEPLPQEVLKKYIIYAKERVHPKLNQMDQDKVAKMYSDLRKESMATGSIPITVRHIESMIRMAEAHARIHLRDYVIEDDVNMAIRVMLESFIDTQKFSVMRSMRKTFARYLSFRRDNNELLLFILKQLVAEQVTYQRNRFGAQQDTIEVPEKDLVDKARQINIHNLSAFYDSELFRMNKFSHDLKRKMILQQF
# T1 sequence (Q14566 whole entry): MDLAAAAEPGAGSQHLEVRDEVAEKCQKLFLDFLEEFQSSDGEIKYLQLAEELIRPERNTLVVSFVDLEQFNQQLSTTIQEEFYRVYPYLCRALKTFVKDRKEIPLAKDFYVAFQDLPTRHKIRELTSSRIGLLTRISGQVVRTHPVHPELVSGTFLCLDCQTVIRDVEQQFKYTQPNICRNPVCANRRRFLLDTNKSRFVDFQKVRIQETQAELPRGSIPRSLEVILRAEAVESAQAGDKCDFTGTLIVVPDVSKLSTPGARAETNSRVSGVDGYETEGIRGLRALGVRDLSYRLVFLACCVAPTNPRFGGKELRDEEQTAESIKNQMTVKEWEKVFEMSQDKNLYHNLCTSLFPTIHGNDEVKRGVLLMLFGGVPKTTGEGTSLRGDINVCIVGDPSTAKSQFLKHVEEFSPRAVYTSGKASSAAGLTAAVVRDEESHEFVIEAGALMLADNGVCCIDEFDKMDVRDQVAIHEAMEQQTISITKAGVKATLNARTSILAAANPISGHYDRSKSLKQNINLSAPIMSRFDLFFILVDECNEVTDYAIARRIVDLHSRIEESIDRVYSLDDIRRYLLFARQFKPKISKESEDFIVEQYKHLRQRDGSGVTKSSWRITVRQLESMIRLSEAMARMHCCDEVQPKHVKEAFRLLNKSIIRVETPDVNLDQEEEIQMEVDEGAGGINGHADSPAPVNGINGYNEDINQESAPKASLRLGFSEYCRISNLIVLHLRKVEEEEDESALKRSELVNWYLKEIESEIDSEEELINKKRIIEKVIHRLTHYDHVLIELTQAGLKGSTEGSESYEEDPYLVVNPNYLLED
smiles,measurement,setting,value
"COC1C(O)[C@H](O[C@H]2CC[C@]3(C)C4CC[C@]5(C)[C@@H](C6=CC(=O)OC6)CC[C@]5(O)[C@@]45O[C@H]5C[C@@H]3C2)OC(C)[C@@H]1O (stereo partly drawn) [17beta-Deacetyltanghinin, 3β-O-(3-O-methyl-6-deoxy-α-L-glucopyranosyl)-7β,8β-epoxy-14β-hydroxy-card-20(22)-enolide]",MCM loading onto chromatin,[1]; HeLa cells released from nocodazole M phase arrest,largely prevented
same,hMcm2 and hMcm6 in chromatin fractions,"[1]; asynchronous HeLa cells, 24 hrs, 0.2, 0.4 or 0.8 ∝g/ml",significantly reduced
same,BrdU positive cells,"HeLa cells; HeLa cells arrested with Mimosine, 12 hrs pre-treatment, released in presence of compound, controls ~100%",~40%
same,BrdU signal (DNA replication),"HeLa cells; asynchronous HeLa cells, 24 hrs, above 0.2 ∝g/ml",almost no BrdU signal
same,growth resumption after removal of compound,[2],"normal cells, but not cancer cells, resumed growth"
